Laboratory results taken from US20020156115A1, “Insecticidal and acaricidal composition, and methods of using the same” (AGRO-KANESHO CO., LTD., priority 1999, published 2002).

Legend:
Format in all cases: in vivo
[1] = tested on: diamond backmoth (Plutella xylostera); assay: Insecticidal effect on larvae of diamond backmoth (cabbage leaf dip); conditions: 500 ppm; cabbage leaf immersed 1 minute; third-instar larvae; fourth day; 25° C.
Protocol: Insecticidal Effect on Larvae of Diamond Backmoth (Plutella xylostera) The present insecticide prepared according to the Preparation Example was diluted with water. A piece (diameter: 6 cm) of a cabbage leaf was immersed in the diluted insecticide for 1 minute. After air drying, the piece was placed in a plastic cup (inner diameter: 7 cm). 5 third-instar larvae of diamond backmoth (Plutella xylostera) were put in the cup (1 concentration, repetition: twice). The cup was kept in a constant temperature room at 25° C. On the fourth day, the survival rate and degree of writhing of the larvae were examined. The writhing larvae were each counted to be ½.

[2] = tested on: two-spotted red spiders (Tetranychus telarius); assay: Acaricidal effect on two-spotted red spiders, imago-killing rate, 500 ppm leaf immersion; conditions: female imagoes on green bean leaf, leaf immersion about 5 seconds, concentration 500 ppm, fifth day after treatment, 25° C.
Protocol: (§1) Acaricidal Effect on Larvae of Two-Spotted Red Spiders (Tetranychus telarius): A stem of green bean seedling having only one primary left was placed in a test tube (capacity: 50 ml) containing water. 15 female imagoes of two-spotted red spiders were put on each leaf. One day after, the leaf having the two-spotted red spiders was immersed (about 5 seconds) in the present insecticide diluted with water, which had been prepared according to the Preparation Example, (concentration: 500 ppm, repetition: twice). They were kept in a constant-temperature room at 25° C. On the fifth day after the treatment, the female imagoes on the leaf of the green bean seedling were observed. The imago-killing rate (%) was determined on the basis of the results of the observation to obtain the results shown in Table 6.

[3] = tested on: eggs of two-spotted red spiders (Tetranychus telarius); assay: Acaricidal effect on eggs of two-spotted red spiders, ovicidal rate, 500 ppm spray; conditions: eggs on green bean leaf disc; spray 3.5 ml; concentration 500 ppm; 8 days after treatment
Protocol: Acaricidal Effect on Eggs of Two-Spotted Red Spiders (Tetranychus telarius) 5 female imagoes of two-spotted red spiders were released on a green been leaf disc (diameter: 3 cm). Then, the imagoes were left to lay eggs on the leaf disc for 20 hours and then removed therefrom. The present acaricide which had been prepared according to Preparation Example 1 was diluted with water to a predetermined concentration. 3.5 ml of the preparation thus obtained was sprayed with a rotary spraying column (Mizuho Rika) over the disc (concentration: 500 ppm, repetition: twice). 8 days after the treatment, the number of unhatched eggs was counted to determine the ovicidal rate (%).

[4] = tested on: two-spotted red spiders (Tetranychus telarius); assay: Acaricidal effect of a low concentration (12.5 ppm) on two-spotted red spiders; conditions: leaf immersion, female imagoes, fifth day after treatment, 25° C.
Protocol: as §1, with “A” for “Acaricidal Effect on Larvae of Two-Spotted Red Spiders (Tetranychus telarius): A”
Acaricidal Effect of a Low Concentration of Acaricide on Larvae of Two-Spotted Red Spiders (Tetranychus telarius)
The same tests as those of Test Example 2 were repeated except that the concentration of the acaricide was changed to 12.5 ppm.

CO/C=C(/C(=O)OC)c1c(C#Cc2ccc(Oc3ccc(C(F)(F)F)cc3)cc2)c(C)nn1C [Table 1-10]
Killing rate [1]: 100%
Acaricidal rate (%) [2]: 100%
Ovicidal rate (%) [3]: 100%
acaricidal effect [4]: 100%

CO/C=C(/C(=O)OC)c1c(C#Cc2ccc(Oc3cc(C(F)(F)F)cc(C(F)(F)F)c3)cc2)c(C)nn1C [Table 1-11]
Killing rate [1]: 100%
Acaricidal rate (%) [2]: 100%
Ovicidal rate (%) [3]: 100%
acaricidal effect [4]: 100%

CO/C=C(/C(=O)OC)c1c(C#Cc2ccc(Oc3ccc(F)cc3Cl)cc2)c(C)nn1C [Table 1-12]
Killing rate [1]: 100%
Acaricidal rate (%) [2]: 100%
Ovicidal rate (%) [3]: 100%
acaricidal effect [4]: 100%

CCc1nn(C)c(/C(=C\OC)C(=O)OC)c1C#Cc1cc(C(F)(F)F)cc(C(F)(F)F)c1 [Table 1-14]
Killing rate [1]: 74%
Acaricidal rate (%) [2]: 100%
Ovicidal rate (%) [3]: 100%
acaricidal effect [4]: 100%

CO/C=C(/C(=O)OC)c1c(C#Cc2cc(C(F)(F)F)cc(C(F)(F)F)c2)c(C(C)C)nn1C [Table 1-17]
Killing rate [1]: 89%
Acaricidal rate (%) [2]: 100%
Ovicidal rate (%) [3]: 100%
acaricidal effect [4]: 100%

CCn1nc(C)c(C#Cc2cc(C(F)(F)F)cc(C(F)(F)F)c2)c1C(=COC)C(=O)OC [Table 1-21, Methyl α-[1-ethyl-3-methyl-4-{3,5-bis(trifluoromethyl)phenylethynyl}-5-pyrazole]-β-methoxyacrylate]
Killing rate [1]: 100%
Acaricidal rate (%) [2]: 100%
Ovicidal rate (%) [3]: 100%
acaricidal effect [4]: 100%

CCn1nc(C)c(C#Cc2cc(C(F)(F)F)cc(C(F)(F)F)c2)c1/C(=C/OC)C(=O)OC [Table 1-22]
Killing rate [1]: 90%
Acaricidal rate (%) [2]: 100%
Ovicidal rate (%) [3]: 100%
acaricidal effect [4]: 100%

CO/C=C(/C(=O)OC)c1c(C#Cc2ccc(OC(F)(F)F)cc2)c(C)nn1C [Table 1-29]
Killing rate [1]: 85%
Acaricidal rate (%) [2]: 100%
Ovicidal rate (%) [3]: 100%
acaricidal effect [4]: 100%

CO/C=C(/C(=O)OC)c1c(OCc2cc(C(F)(F)F)cc(C(F)(F)F)c2)c(C)nn1C [Table 2-1]
Killing rate [1]: 87%
Acaricidal rate (%) [2]: 100%
Ovicidal rate (%) [3]: 100%
acaricidal effect [4]: 100%
